Assay results reported in article PMC12373846, “Hemoglobin as a pseudoperoxidase and drug target for oxidative stress-related diseases” (Signal Transduction and Targeted Therapy, 2025).

Assays:
aged C57BL/6J mice = test: Open field locomotor activity, aging mice; assay type: in vivo, mouse; conditions: 26 month
mice = test: Laser speckle contrast imaging of cerebral perfusion; assay type: in vivo, mouse
Procedure: To assess cerebral perfusion, mice were anesthetized with isoflurane (2-3% in 100% O2, maintained at 1.0%) and placed on a heating pad to maintain body temperature. Following scalp incision, the skull surface was exposed without thinning or craniotomy. LSCI was performed using a laser speckle imaging system (RWD Life Science), acquiring frames at 30 Hz. KDS12025 (0.1, 1, or 10 mg/kg/day) or saline was administered via retro-orbital injection immediately prior to imaging. Cerebral blood perfusion and vessel diameter (pipe diameter) were quantified using RWD’s proprietary LSCI analysis software. All imaging was conducted under identical illumination and acquisition parameters.

purified mouse RBCs = test: Isolated red blood cell H2O2 assay; assay type: cell-based; conditions: 1 µM H2O2
Procedure: RBCs were isolated following a modified version of the protocol described by Hanson et al. (2008). Whole blood was collected from male ICR mice (5–6 weeks old) via retro-orbital bleeding under isoflurane anesthesia. Blood was transferred using heparin-coated capillaries into EDTA-coated microcentrifuge tubes and centrifuged at 500 x g for 10 min. Plasma and buffy coat were removed, and the RBC pellet was washed three times with phosphate-buffered saline (PBS) containing 2% fetal bovine serum (FBS) to remove leukocytes and plasma components. The final RBC suspension was adjusted to 5 x 10^3 cells/µL, and cell concentration was verified using an automated hematology analyzer (Horiba Microsemi LC-662).
H2O2 was quantified using the ROS-Glo H2O2 Assay kit (Promega) according to the manufacturer’s protocol. RBCs were dispensed into white 96-well plates at a final volume 70 µL per well. KDS12025 was tested at final concentrations of 0.01, 0.1, and 1 µM, and co-treated with 1 µM H2O2. The ROS-Glo substrate was added simultaneously to all wells. Plates were incubated for 10 min at 37°C. After incubation, ROS-Glo detection reagent was added directly to each well. Plates were then incubated for 20 min at room temperature. Luminescence was measured using a microplate reader (SpectraMax) according to kit settings. Relative luminescence units (RLU) were background-subtracted and normalized to the RBC+ H2O2 only control group. All conditions were tested in triplicate. Results present the combined average of two independent experiments; each performed with the same experimental layout and controls.

A53T mice = test: Immunohistochemistry of SNpc, A53T mice; assay type: in vivo, mouse; conditions: for mean GABA intensity in GFAP-positive areas: Fig. 4k; for TH-positive neuron counts per hemisphere: Fig. 4l
Procedure: Stereotaxic injections were performed to deliver the AAV-CMV-A53T virus or PBS (control) into the right SNpc (AP, −3.2 mm; ML, −1.3 mm; DV, −4.0 mm from the bregma) of the mice. The injections were administered at a rate of 0.2 μl/min, with a total volume of 1 μl. The procedure was conducted under general anesthesia induced by 1% isoflurane.
The mice were deeply anesthetized with 2% isoflurane and positioned on the operating table. After the abdomen was opened and the heart was exposed, the […] were perfused with saline, followed by 4% paraformaldehyde (PFA) in 0.1 M PBS. The mice were decapitated, and the brains were excised from the skull. Excised brains were postfixed in 4% PFA overnight at 4 °C and dehydrated in 30% sucrose for 48 h. Coronal hippocampal sections were cut at 30 µm thickness with a cryostat and stored in storage solution. For the ALS experiments, lumbar spinal cords (L2–L5) were also carefully dissected and immediately immersed in 4% PFA for postfixation. The sections were fully washed in 0.1 M PBS and incubated for 1 h in blocking solution (0.3% Triton X-100, 2% donkey and goat serum in 0.1 M PBS). Next, a mixture of primary antibodies in the blocking solution was used for immunostaining on a shaker overnight at 4 °C. The sections were washed in PBS three times. After washing, the sections were incubated with the corresponding fluorescent secondary antibodies for 1 h at RT. DAPI staining was performed by adding a DAPI solution (1:2000) during the second washing step. After the washing step was complete, the sections were mounted on cover slides with mounting medium. A series of fluorescence images were obtained with an LSM900 (Zeiss, Germany) confocal microscope or Lattice SIM Elyra 7 (Zeiss, Germany). The 15–22 μm Z stack images in 1–2 μm steps were processed for image analysis, which was performed via the ImageJ (NIH, US) and ZEN digital imaging for light microscopy blue system (Zeiss, Germany) programs. The primary antibodies used were as follows: chicken anti-GFAP (1:500, Millipore, ab5541), rabbit anti-amyloid beta (1:500, Abcam, ab2539), mouse anti-NeuN (1:200, Millipore, ab377), rabbit anti-Hbβ (1:200, Abcam, ab214049), mouse anti-Hbβ (1:200, Santacruz, sc-21757), mouse anti-MAOB (1:200, Santacruz, sc-515354), mouse anti-8-OhdG (1:500, Santacruz, sc-393871), rabbit anti-TH (1:500, Pelfreez, p40101), and mouse anti-TH (1:200, Sigma, T2928). The following secondary antibodies from Jackson were diluted (1:500) in blocking solution: donkey-anti-chicken 405, donkey-anti-chicken 647, donkey-anti-rabbit 488, donkey-anti-rabbit 594, donkey-anti-rabbit 647, donkey-anti-guinea pig 488, donkey-anti-guinea pig 647, donkey-anti-mouse 594, and donkey-anti-mouse 647. Serial confocal sections immunolabeled with GFAP were compiled into a maximal projection to assess the GFAP signal within the hippocampus (Z-stacked images, 15–22 μm Z stack images in 1–2 μm steps of brain sections). Sholl analysis, performed via the ImageJ plugin, automatically generated concentric circles with 10-μm spacing from the nucleus (soma) to the farthest astrocytic process. This analysis quantified the intersections of GFAP-labeled processes within each circle, calculating the ramification index and ending radius, enabling the evaluation of astrocytic hypertrophy and morphological changes, as previously described.[78] In the focal GiD mouse model, NeuN-positive CA1 pyramidal neurons were quantified within a 50 × 50 μm^2 region via ImageJ to determine the number of CA1 pyramidal neurons.
For the SNpc, astrocytes and dopaminergic neurons were analyzed separately. The SNpc region was manually reconstructed using anatomical landmarks and TH or GFAP signals. GFAP-positive astrocyte surfaces were reconstructed with surface details set to 0.6 μm, the diameter of the largest sphere at 2.0 μm, a manual threshold value minimum of 800, and diffusion transparency set to 60%. […]

CNc1ccc(NCCc2ccccc2OC)cc1.Cl [KDS12025, N^1-(2-methoxyphenethyl)-N^4-methylbenzene-1,4-diamine hydrochloride salt]
distance traveled (Fig. 7d) (aged C57BL/6J mice; 0.1mpk): 3262±203 | locomotor velocity (Fig. 7c) (aged C57BL/6J mice; 0.1mpk): 5.42±0.34 | distance traveled (Fig. 7d) (aged C57BL/6J mice; 1mpk): 3600±561 | locomotor velocity (Fig. 7c) (aged C57BL/6J mice; 1mpk): 6.24±0.6 | overall cerebral perfusion (LSCI, Fig. S8f) (mice; 0.1 mpk retro-orbital): 1169±10.7 | vessel diameter (pipe diameter, Fig. S8g) (mice; 0.1 mpk retro-orbital): 193±3.8 | overall cerebral perfusion (LSCI, Fig. S8f) (mice; 1 mpk retro-orbital): 1205±10.4 | vessel diameter (pipe diameter, Fig. S8g) (mice; 1 mpk retro-orbital): 200±2.3 | overall cerebral perfusion (LSCI, Fig. S8f) (mice; 10 mpk retro-orbital): 1190±7.4 | vessel diameter (pipe diameter, Fig. S8g) (mice; 10 mpk retro-orbital): 203±3.9 | H2O2 level normalized to RBC+H2O2 only (Fig. S20t) (purified mouse RBCs; 0.01 µM): 37.08±7.98 | H2O2 level normalized to RBC+H2O2 only (Fig. S20t) (purified mouse RBCs; 0.1 µM): 20.61±3.586 | H2O2 level normalized to RBC+H2O2 only (Fig. S20t) (purified mouse RBCs; 1 µM): 7.116±4.5 | mean intensity of Hbβ in GFAP-positive areas (A53T mice; A53T contra+KDS12025, Fig. 5p): 46.92±4.141 | mean intensity of Hbβ in TH-positive areas (A53T mice; A53T contra+KDS12025, Fig. 5q): 61.58±2.401 | mean intensity of GFAP in GFAP-positive area (A53T mice; A53T contra+KDS12025, Fig. S12c): 82.69±4.999 | GFAP-positive area in the SNpc (A53T mice; A53T contra+KDS, Fig. 4j): 25.28±2.892 | mean GABA intensity in GFAP-positive areas (A53T mice; A53T contra+KDS): 10.18±1.460 | TH-positive neuron counts per hemisphere (A53T mice; A53T contra+KDS): 23.20±2.685 | mean intensity of Hbβ in GFAP-positive areas (A53T mice; A53T ipsi+KDS12025, Fig. 5p): 34.98±2.564 | mean intensity of Hbβ in TH-positive areas (A53T mice; A53T ipsi+KDS12025, Fig. 5q): 55.65±3.378 | mean intensity of GFAP in GFAP-positive area (A53T mice; A53T ipsi+KDS12025, Fig. S12c): 106.7±3.202 | GFAP-positive area in the SNpc (A53T mice; A53T ipsi+KDS, Fig. 4j): 34.18±3.214 | mean GABA intensity in GFAP-positive areas (A53T mice; A53T ipsi+KDS): 5.531±0.9318 | TH-positive neuron counts per hemisphere (A53T mice; A53T ipsi+KDS): 20.96±2.68 | GFAP-positive area in the SNpc (A53T mice; A53T+shHbβ::CaMKII+KDS12025, Fig. 6r): 37.16±3.6 | number of TH-positive neurons per hemisphere (A53T mice; A53T+shHbβ::CaMKII+KDS12025, Fig. 6s): 18.5±1.3 | GFAP-positive area in the SNpc (A53T mice; A53T+shHbβ::GFAP+KDS12025, Fig. 6r): 42.7±5.05 | number of TH-positive neurons per hemisphere (A53T mice; A53T+shHbβ::GFAP+KDS12025, Fig. 6s): 16.75±2.75
